Reference: patent US20140066475A1, “Method For Treating Pruritus” (Euro-Celtique S.A., priority 2012, published 2014)
Counter-ions that a name gives are not always drawn. Marks after values point to notes of the source that are not given here.

What was measured:
[1] = biological target: T1, kappa opioid receptor (Homo sapiens, UniProt P41145); test: κ-opioid receptor [35S]GTPγS functional assay; assay type: biochemical; conditions: relative to U69,593; read-out: GTPγS κ Emax [mean ± SEM]
T1 construct: expressed in transfected cells; host or cells: HEK-293
Procedure: Similarly for KOR, the κ GTP Emax (%) is the maximal effect elicited by a compound relative to the effect elicited by the known κ-agonist, U69,593.
κ-Opioid Receptor Functional Assay Procedures:
Functional [^35S]GTPγS binding assays were conducted as follows. Kappa opioid receptor membrane solution was prepared by sequentially adding final concentrations of 0.026 μg/μl kappa membrane protein (in-house), 10 μg/mL saponin, 3 μM GDP and 0.20 nM [^35S]GTPγS to binding buffer (100 mM NaCl, 10 mM MgCl2, 20 mM HEPES, pH 7.4) on ice. The prepared membrane solution (190 μl/well) was transferred to 96-shallow well polypropylene plates containing 10 μl of 20× concentrated stock solutions of agonist prepared in DMSO. Plates were incubated for 30 min at a temperature of about 25° C. with shaking. Reactions were terminated by rapid filtration onto 96-well Unifilter GF/B filter plates (Packard) using a 96-well tissue harvester (Packard) and followed by three filtration washes with 200 μl ice-cold […] (10 mM NaH2PO4, 10 mM Na2HPO4, pH 7.4). Filter plates were subsequently dried at 50° C. for 2-3 hours. Fifty μl/well scintillation cocktail (MicroScint20, Packard) was added and plates were counted in a Packard Top-Count for 1 min/well.

[2] = biological target: μ-opioid receptor (Homo sapiens, UniProt P35372); test: μ-opioid receptor [35S]GTPγS functional assay; assay type: biochemical
Text: Measures of a compound's activity at a given receptor are given by GTP Emax and GTP EC50. GTP Emax (%) is the maximal effect elicited by a compound relative to the effect elicited by a standard, known agonist compound. GTP EC50 is the concentration of a compound providing 50% of the maximal response for that compound at a given receptor. For MOR, the μ GTP Emax (%) is the maximal effect elicited by a compound relative to the effect elicited by the standard MOR agonist [D-Ala^2, N-methyl-Phe^4 Gly-ol^5]-enkephalin (a/k/a DAMGO). Generally, the μ GTP Emax (%) value measures the efficacy of a compound to treat or prevent pain or diarrhea.
μ-Opioid Receptor Functional Assay Procedures:
[^35S]GTPγS functional assays were conducted using freshly thawed μ-receptor membranes. Assay reactions were prepared by sequentially adding the following reagents to binding buffer (100 mM NaCl, 10 mM MgCl2, 20 mM HEPES, pH 7.4) on ice (final concentrations indicated): membrane protein (0.026 mg/mL), saponin ([…]), GDP ([…]) and [^35S]GTPγS (0.20 nM; NEN). […] BetaScint scintillation cocktail (Wallac, Turku, Finland) was added (50 μl/well) and plates were counted using a Packard Top-Count for 1 min/well. Data were analyzed using the sigmoidal dose-response curve fitting functions in GraphPad PRISM v. […]

[3] = system: adult male CD-1 mice; test: In vivo itch response assay (Compound 48/80-induced scratching); conditions: for Effect on scratch response: given 20 min before pruritogen Compound 48/80
Procedure: In Vivo Model and Procedures:
An in vivo model was devised and implemented to evaluate the antipruritic activity of compounds in mice. Compound 48/80 (Sigma Chemical), a known pruritogen in mice, was mixed in a 0.9% saline vehicle and administered to various cohorts of adult male CD-1 mice by s.c. injection at the nape of the neck at dosage levels of 12.5, 25, 50 and 100 μg. The saline vehicle alone was used as a control. The mice were monitored visually and scratching bouts were counted over the ensuing 30 minutes.
Next, test benzomorphan Compound #1 (see Examples 1 and 2 above) was given in various doses (Table 3 below) in the rear flank 20 minutes prior to pruritogen injection in the same manner as the Nalfurafine.

μ-opioid receptor, sequence (P35372 whole entry, species assumed): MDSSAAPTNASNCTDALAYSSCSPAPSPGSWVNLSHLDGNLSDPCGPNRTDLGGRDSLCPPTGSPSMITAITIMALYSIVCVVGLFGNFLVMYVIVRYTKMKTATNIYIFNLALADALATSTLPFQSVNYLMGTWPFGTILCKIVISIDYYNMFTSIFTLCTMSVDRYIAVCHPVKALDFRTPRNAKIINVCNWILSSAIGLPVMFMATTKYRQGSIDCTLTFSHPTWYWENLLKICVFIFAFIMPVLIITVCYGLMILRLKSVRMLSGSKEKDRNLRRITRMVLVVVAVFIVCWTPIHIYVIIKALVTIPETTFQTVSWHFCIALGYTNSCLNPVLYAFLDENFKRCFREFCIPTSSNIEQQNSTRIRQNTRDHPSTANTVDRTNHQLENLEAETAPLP
T1 sequence (P41145 whole entry): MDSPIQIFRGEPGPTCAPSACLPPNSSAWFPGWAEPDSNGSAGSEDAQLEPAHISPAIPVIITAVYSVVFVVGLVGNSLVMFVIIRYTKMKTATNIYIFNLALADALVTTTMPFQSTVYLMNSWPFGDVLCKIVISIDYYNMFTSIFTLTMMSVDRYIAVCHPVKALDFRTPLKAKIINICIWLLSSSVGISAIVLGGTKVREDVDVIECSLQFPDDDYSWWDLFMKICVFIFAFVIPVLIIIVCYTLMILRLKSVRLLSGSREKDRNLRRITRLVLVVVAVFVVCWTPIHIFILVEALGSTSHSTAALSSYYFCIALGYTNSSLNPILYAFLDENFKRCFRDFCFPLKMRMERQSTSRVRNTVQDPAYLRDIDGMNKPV

SMILES: C=CC[N+]1(C)CCC2(C)c3cc(O)ccc3C[C@@H]1[C@@H]2C.[I-] (stereo partly drawn) [Compound #1]
- Emax [1]: 27.3 ± 3.38%
- EC50 [2]: > 20 µM
- Emax ([2]; relative to DAMGO, read-out: GTPγS μ Emax [mean ± SEM]): 3.67 ± 1.33%
- Total # Scratching Bouts in 30 mins (mean ± S.E.M.) ([3]; 3 mg/kg in rear flank 20 min before Compound 48/80 (0.5 mg/kg)): 155.8 ± 13.73^a
- Total # Scratching Bouts in 30 mins (mean ± S.E.M.) ([3]; 10 mg/kg in rear flank 20 min before Compound 48/80 (0.5 mg/kg)): 129.4 ± 16.18^b
- Total # Scratching Bouts in 30 mins (mean ± S.E.M.) ([3]; 30 mg/kg in rear flank 20 min before Compound 48/80 (0.5 mg/kg)): 70.8 ± 19.74^c
- Effect on scratch response [3]: alleviated pruritus by reducing the mean number of scratching bouts

SMILES: CN(C(=O)/C=C/c1ccoc1)[C@@H]1CC[C@@]2(O)[C@H]3Cc4ccc(O)c5c4[C@@]2(CCN3CC2CC2)[C@H]1O5 [Nalfurafine, Nalfurafine HCl, reference compound]
- Total # Scratching Bouts in 30 mins (mean ± S.E.M.) ([3]; 0.04 mg/kg s.c. 20 min before Compound 48/80 (0.5 mg/kg)): 25.6 ± 7.92^d
- Effect on scratch response [3]: dose dependent reduction in scratch response
